# In patent publication US20240279220A1, “INDOLE COMPOUNDS AND METHODS OF USE” (Genzyme Corporation, priority 2021, published 2024):
# Tested on: NBD1/3D
# Experiment: Aggregation analysis using differential static light scattering (DSLS), NBD1 thermal stability
# Assay type: binding, Human
# Details: ΔTagg versus DMSO control; compound at 100 μM
# Experimental: Purified recombinant NBD1 was produced using previously described methods (A. Schmidt, J. L. Mendoza, P. J. Thomas (2011) Biochemical and Biophysical Approaches to Probe CFTR Structure (365-376) M. D. Amaral, K. Kunzelmann (eds.), Cystic Fibrosis, Methods in Molecular Biology 741, Springer Science+Business Media). The effect of test compounds on thermal stability of NBD1 was evaluated by differential static light scattering (DSLS) using the Harbinger Stargazer-384 instrument (Epiphyte Three, Toronto, Canada).
# Test compounds were dissolved and diluted to desired concentrations in 100% DMSO. The compounds or DMSO controls (100 nL) were stamped into wells of a […] low volume optical plate (Corning Inc., Corning, NY) using the Echo 555 acoustic liquid handler (Labcyte Inc., San Jose, CA).
# NBD1 protein was diluted to 0.2 mg/ml in S200 buffer (50 mM Tris-HCl, 150 mM NaCl, 5 mM MgCl2, 2 mM ATP, 2 mM DTT, pH7.6) containing 1% glycerol. 10 uL of protein solution was aliquoted into the 384-well plate harboring the test compounds and 10 uL mineral oil was overlayed onto the protein solution, using the epMotion robotic liquid handler (Eppendorf North America, Hauppauge, NY). After placing into the Stargazer instrument, the plate was heated at 1° C. per minute to 70° C. Images were captured from 25° C. to 70° C. every 0.5° C. At the end of the experiment run, instrument software integrated image files and analyzed data automatically. A […] regression curve was generated for each well, representing the increase in light scattering over time. A temperature of aggregation (Tagg) was calculated based on the inflection point of the curve. To better compare data across experiments the average Tagg for DMSO control wells was calculated and subtracted from values for wells containing compounds to obtain a “ΔTagg” value. These ΔTagg values reflect stabilizing efficacy of the compounds.
row,Structure (SMILES),DSLS NBD1/3D Human Stability delta-T (° C.) @ 100 (μM)
1,"O=C(O)CCc1cccc(Cc2cnc(-c3cc(Oc4c(F)cc5[nH]ccc5c4F)ccc3F)[nH]2)c1F [Example 100, 3-(3-((2-(5-((4,6-Difluoro-1H-indol-5-yl)oxy)-2-fluorophenyl)-1H-imidazol-5-yl)methyl)-2-fluorophenyl)propanoic acid]",B (B: 5-10° C.)
2,"CC(c1c[nH]c(-c2cc(Oc3c(F)cc4[nH]ccc4c3S(C)(=O)=O)ccc2F)n1)c1cccc(CC(=O)O)c1F (single isomer, unassigned) [Example 85, 2-(2-fluoro-3-(1-(2-(2-fluoro-5-((6-fluoro-4-(methylsulfonyl)-1H-indol-5-yl)oxy)phenyl)-1H-imidazol-4-yl)ethyl)phenyl)acetic acid]",B (B: 5-10° C.)
3,"CS(=O)(=O)c1c(Oc2ccc(F)c(-c3nc(C4(c5cccc(CCC(=O)O)c5)CC(F)(F)C4)cs3)c2)c(F)cc2[nH]ccc12 [Example 79, 3-(3-(3,3-Difluoro-1-(2-(2-fluoro-5-((6-fluoro-4-(methylsulfonyl)-1H-indol-5-yl)oxy)phenyl)thiazol-4-yl)cyclobutyl)phenyl)propanoic acid]",B (B: 5-10° C.)
4,"CS(=O)(=O)c1c(Oc2ccc(F)c(-c3ncc(Cc4cccc(CCC(=O)O)c4)[nH]3)c2)c(F)cc2[nH]ccc12 [Example 22, 3-(3-((2-(2-Fluoro-5-((6-fluoro-4-(methylsulfonyl)-1H-indol-5-yl)oxy)phenyl)-1H-imidazol-5-yl)methyl)phenyl)propanoic acid]",A (A: T ≥ 10° C.)
5,"O=C(O)CCc1cccc(Cc2cnc(-c3cc(Oc4c(F)cc5[nH]ccc5c4CNCC(F)(F)F)ccc3F)[nH]2)c1 [Example 265, 3-(3-((2-(2-Fluoro-5-((6-fluoro-4-(((2,2,2-trifluoroethyl)amino)methyl)-1H-indol-5-yl)oxy)phenyl)-1H-imidazol-5-yl)methyl)phenyl)propanoic acid]",B (B: 5-10° C.)
6,"Cc1c(Oc2ccc(F)c(-c3nnc(C(C)(O)c4cccc(CCC(=O)O)c4)[nH]3)c2)c(F)cc2[nH]ccc12 (centres unmarked) [Example 251, 3-(3-(1-(5-(2-fluoro-5-((6-fluoro-4-methyl-1H-indol-5-yl)oxy)phenyl)-4H-1,2,4-triazol-3-yl)-1-hydroxyethyl)phenyl)propanoic acid]",B (B: 5-10° C.)
7,"O=C(O)CCc1cccc(Cc2c[nH]c(-c3cc(Oc4c(F)cc5[nH]ccc5c4CC(F)F)ccc3F)n2)c1 [Example 117, 3-(3-((2-(5-((4-(2,2-difluoroethyl)-6-fluoro-1H-indol-5-yl)oxy)-2-fluorophenyl)-1H-imidazol-4-yl)methyl)phenyl)propanoic acid]",B (B: 5-10° C.)
8,"[2H]C([2H])([2H])C(C#N)(c1cccc(CCC(=O)O)c1)c1cnc(-c2cc(Oc3c(F)cc4[nH]ccc4c3C)ccc2F)[nH]1 (centres unmarked) [Example 59, 3-(3-(1-cyano-1-(2-(2-fluoro-5-((6-fluoro-4-methyl-1H-indol-5-yl)oxy)phenyl)-1H-imidazol-5-yl)ethyl-2,2,2-d3)phenyl)propanoic acid]",B (B: 5-10° C.)
9,"CC(CC(=O)O)c1cccc([C@H](O)c2cnc(-c3cccc(Oc4c(F)cc5[nH]ccc5c4F)c3)[nH]2)c1 (stereo partly drawn) [Example 182, 3-(3-((S)-(2-(3-((4,6-Difluoro-1H-indol-5-yl)oxy)phenyl)-1H-imidazol-5-yl)(hydroxy)methyl)phenyl)butanoic acid]",B (B: 5-10° C.)
10,"CC(Cc1cccc(C(C)c2cnc(-c3cc(Oc4c(F)cc5[nH]ccc5c4F)ccc3F)[nH]2)c1F)C(=O)O (single isomer, unassigned) [Example 137C, 3-(3-(1-(2-(5-((4,6-difluoro-1H-indol-5-yl)oxy)-2-fluorophenyl)-1H-imidazol-5-yl)ethyl)-2-fluorophenyl)-2-methylpropanoic acid]",C (C: ≤5° C.)
11,"C[S+]([O-])c1c(Oc2cccc(-c3nc(Cc4cccc(CCC(=O)O)c4)cs3)c2)c(F)cc2[nH]ccc12 (centres unmarked) [Example 36, 3-(3-((2-(3-((6-Fluoro-4-(methylsulfinyl)-1H-indol-5-yl)oxy)phenyl)thiazol-4-yl)methyl)phenyl)propanoic acid]",B (B: 5-10° C.)
12,"CC(c1c[nH]c(-c2cc(Oc3c(F)cc4[nH]ccc4c3CC(F)F)ccc2F)n1)c1cccc(CCC(=O)O)c1F (single isomer, unassigned) [Example 129B, 3-(3-(1-(2-(5-((4-(2,2-difluoroethyl)-6-fluoro-1H-indol-5-yl)oxy)-2-fluorophenyl)-1H-imidazol-4-yl)ethyl)-2-fluorophenyl)propanoic acid]",C (C: ≤5° C.)
13,"Cn1nc(-c2cccc(Oc3c(F)cc4[nH]ccc4c3S(C)(=O)=O)c2)nc1Cc1cccc(CCC(=O)O)c1 [Example 31, 3-(3-((3-(3-((6-Fluoro-4-(methylsulfonyl)-1H-indol-5-yl)oxy)phenyl)-1-methyl-1H-1,2,4-triazol-5-yl)methyl)phenyl)propanoic acid]",B (B: 5-10° C.)
14,"CC(c1c[nH]c(-c2cc(Oc3c(F)cc4[nH]ccc4c3S(C)(=N)=O)ccc2F)n1)c1cccc(CCC(=O)O)c1F (single isomer, unassigned) [Example 136D, 3-(2-fluoro-3-(1-(2-(2-fluoro-5-((6-fluoro-4-(S-methylsulfonimidoyl)-1H-indol-5-yl)oxy)phenyl)-1H-imidazol-4-yl)ethyl)phenyl)propanoic acid]",B (B: 5-10° C.)
15,"O=C(O)CCCCCCc1ccc(Cc2nnc(-c3cccc(Oc4ccc5[nH]ccc5c4)c3)[nH]2)cc1 [Example 254, 7-(4-((5-(3-((1H-Indol-5-yl)oxy)phenyl)-4H-1,2,4-triazol-3-yl)methyl)phenyl)heptanoic acid]",C (C: ≤5° C.)
16,"CCC(C#N)(c1cccc(CCC(=O)O)c1)c1c[nH]c(-c2cc(Oc3c(F)cc4[nH]ccc4c3C)ccc2F)n1 (centres unmarked) [Example 51, 3-(3-(1-cyano-1-(2-(2-fluoro-5-((6-fluoro-4-methyl-1H-indol-5-yl)oxy)phenyl)-1H-imidazol-4-yl)propyl)phenyl)propanoic acid]",A (A: T ≥ 10° C.)
17,"Cc1c(Oc2ccc(F)c(-c3ncc(C(C)c4cccc([C@H]5C[C@H]5C(=O)O)c4F)[nH]3)c2)c(F)cc2[nH]ccc12 (single isomer, unassigned) [Example 138D, cis-2-(2-fluoro-3-(1-(2-(2-fluoro-5-((6-fluoro-4-methyl-1H-indol-5-yl)oxy)phenyl)-1H-imidazol-5-yl)ethyl)phenyl)cyclopropane-1-carboxylic acid]",C (C: ≤5° C.)
18,"NC(=O)CCc1cccc(Cc2c[nH]c(-c3cc(Oc4c(F)cc5[nH]ccc5c4F)ccc3F)n2)c1 [Example 127, 3-(3-((2-(5-((4,6-Difluoro-1H-indol-5-yl)oxy)-2-fluorophenyl)-1H-imidazol-4-yl)methyl)phenyl)propanamide]",C (C: ≤5° C.)
19,"Cc1c(Oc2ccc(F)c(-c3nnc(Cc4cccc5c4CC(C(=O)O)C5)[nH]3)c2)c(F)cc2[nH]ccc12 (centres unmarked) [Example 244, 4-((5-(2-Fluoro-5-((6-fluoro-4-methyl-1H-indol-5-yl)oxy)phenyl)-4H-1,2,4-triazol-3-yl)methyl)-2,3-dihydro-1H-indene-2-carboxylic acid]",C (C: ≤5° C.)
20,"C[S+]([O-])c1c(Oc2cccc(-c3ncn(Cc4cccc(CCC(=O)O)c4)n3)c2)c(F)cc2[nH]ccc12 (centres unmarked) [Example 33, 3-(3-((3-(3-((6-Fluoro-4-(methylsulfinyl)-1H-indol-5-yl)oxy)phenyl)-1H-1,2,4-triazol-1-yl)methyl)phenyl)propanoic acid]",B (B: 5-10° C.)
21,"Cc1c(Oc2cccc(-c3nn(Cc4cccc(CCC(=O)O)c4)cc3F)c2)c(F)cc2[nH]ccc12 [Example 19, 3-(3-((4-Fluoro-3-(3-((6-fluoro-4-methyl-1H-indol-5-yl)oxy)phenyl)-1H-pyrazol-1-yl)methyl)phenyl)propanoic acid]",C (C: ≤5° C.)
22,"CC(C)(c1cnc(-c2cc(Oc3ccc4[nH]ccc4c3F)ccc2F)[nH]1)c1cccc(CCC(=O)O)c1F [Example 162, 3-(2-fluoro-3-(2-(2-(2-fluoro-5-((4-fluoro-1H-indol-5-yl)oxy)phenyl)-1H-imidazol-5-yl)propan-2-yl)phenyl)propanoic acid]",B (B: 5-10° C.)
23,"Cc1c(Oc2ccc(F)c(-c3ncc(Cc4cc(F)cc(CCC(=O)O)c4)[nH]3)c2)ccc2[nH]ccc12 [Example 106, 3-(3-fluoro-5-((2-(2-fluoro-5-((4-methyl-1H-indol-5-yl)oxy)phenyl)-1H-imidazol-5-yl)methyl)phenyl)propanoic acid]",B (B: 5-10° C.)
